Experimental findings from PubChem BioAssay (NCI) are described below.

Experiment in all cases: NCI tumour cell line growth inhibition, 48 h
For experiment [1], the system named is ACHN renal.
Experiment [2] relates to KM12 colon.
Experiment [3] relates to NCI-H23 lung.
Experiment [4] has as its system SF-539 CNS.
Experiment [5] relates to SK-MEL-28 melanoma.
Experiment [6] concerns UACC-257 melanoma.
The subject of experiment [7] is M14 melanoma.
The test system of experiment [8] is MOLT-4 leukemia.
Experiment [9] relates to SR leukemia.

Molecules are shown by their SMILES.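 1) Cells in 96-well plates. 2) Compound, 48 h, 5 concentrations. 3) Linear interpolation between surrounding doses. 4) Unreached endpoint = highest concentration. GI50 marks 50% less growth. Definition used: TGI = concentration required for complete inhibition of growth.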

In the case of `COc1cc(S(=O)(=O)Nc2ccc(C(=O)/C=C/c3ccc(O)cc3)cc2)ccc1F`, the GI50 in experiment [1], in [2], in experiment [3], in experiment [4], in [5] and in experiment [6] was above 100 µM throughout. Further, the TGI in [1], in [2], in experiment [3], in experiment [4], in experiment [5] and in [6] was above 100 µM each time.
As for `O=P(O)(O)c1ccccc1Oc1ccccc1`, the TGI in [1], in [2], in experiment [7], in experiment [8], in experiment [3] and in [4] was above 100 µM in each case. Also, the TGI in experiment [5] and in experiment [6] was above 100 µM in each case.
Take `O=c1nc2c(c(-c3ccc(Br)cc3)[nH]1)COC/C2=C\c1ccc(Br)cc1`: the TGI in experiment [1], in experiment [2], in experiment [7], in experiment [8], in experiment [3] and in experiment [4] was above 50 µM each time. Also, the TGI in experiment [5] and in [6] was above 50 µM throughout.
For `CC1=NN(c2nc(N)nc(-c3sccc3N)n2)C(C)(C)C1`, the TGI in experiment [1], in experiment [2], in experiment [7], in experiment [8], in experiment [3] and in experiment [4] was above 100 µM each time. For the same compound, the TGI in experiment [5] and in [6] was above 100 µM throughout.
For the compound `Cn1c(=O)c2c(nc3n(Cc4ccccc4)c(=O)c(NCCCBr)cn23)n(C)c1=O`, the TGI in experiment [1], in experiment [2], in experiment [7], in experiment [8], in experiment [3] and in experiment [5] was above 100 µM throughout. Moreover, the TGI in experiment [9] and in experiment [6] was above 100 µM in each case.
Consider `CS(=O)(=O)Nc1ccc2c(c1)N(S(C)(=O)=O)CC2CCl` (centres undefined), for which the TGI in experiment [1], in [2], in experiment [8], in experiment [3], in [4] and in [5] was above 100 µM throughout. Moreover, the TGI in experiment [9] and in experiment [6] was above 100 µM throughout.
`C1=C2C3=[N+](CCCCC3)CC2Cc2ccsc21` (centres undefined): the TGI in [1], in [2], in experiment [7], in experiment [8], in [3] and in [5] was above 100 µM each time. In addition, the TGI in experiment [6] turned out to be 85.3 µM.
Take `CC(C)C(=O)C(C)(C)CCc1ccccn1`: the TGI in experiment [1], in experiment [2], in experiment [7], in experiment [3], in [5] and in experiment [9] was above 100 µM each time. This compound also showed a TGI in experiment [6] above 100 µM.
Consider `S=C(N/N=C\C(=N/NC(=S)N1CCCCC1)c1ccccc1)N1CCCCC1`, for which the TGI in experiment [1] turned out to be 3.11 µM; in experiment [2] it was 3.98 µM; in experiment [7], 3.61 µM; in experiment [4] it was 6.7 µM; in experiment [5], 3.65 µM; in experiment [6], 5.01 µM.
For `c1cncc(CC2(c3cc4ccccc4[nH]3)OCCO2)c1`, the TGI in experiment [1], in experiment [2], in [3], in experiment [4], in experiment [5] and in [9] was above 100 µM in each case. The compound also returned a TGI in [6] above 100 µM.
Consider `CSc1nc(NC(C)C)c2c(n1)Sc1nc3ccccc3n1N=C2`, for which the TGI in experiment [1] is 20.9 µM; in [2], 60.9 µM; in experiment [7], above 100 µM; in experiment [8], above 100 µM; in [3], 38.7 µM; in [5], above 100 µM. For the same compound, the TGI in experiment [9] and in experiment [6] was above 100 µM each time.
Turning to `Cn1c(=O)c(-c2ccccc2)c(O)c2ccccc21`, the TGI in experiment [1], in experiment [2], in experiment [8], in experiment [3], in experiment [4] and in experiment [5] was above 100 µM each time. In addition, the TGI in experiment [9] and in experiment [6] was above 100 µM each time.
Turning to `Nc1nc(Cl)cc(NCC2(O)CC2)n1`, the TGI in [1], in experiment [2], in [8], in experiment [3], in experiment [4] and in experiment [5] was above 100 µM in each case. In addition, the TGI in experiment [9] and in [6] was above 100 µM in each case.
Take `NC(=O)c1csc(C2(O)COC(CO)C2O)n1` (centres undefined): the TGI in experiment [1], in [2], in experiment [7], in [3], in experiment [4] and in experiment [5] was above 100 µM in each case. Also, the TGI in experiment [9] and in [6] was above 100 µM throughout.
Take `COc1cccc2c1C(=O)c1c(O)c3c(c(O)c1C2=O)C[C@H](O)C[C@@H]3OC1CC(N)C(O)C(C)O1` (some centres undefined): the TGI was found to be 3.54 µM in experiment [1]; 10.1 µM in experiment [2]; 0.144 µM in [8]; 3.18 µM in [3]; 11.2 µM in experiment [4]; 9.13 µM in experiment [5]. In addition, the TGI in experiment [9] was 0.229 µM; in experiment [6], 5.15 µM.
With `CC[C@H](Nc1nc(C)nc(N)c1C#N)c1nc2cccc(NCc3ccc(C(=O)NO)cc3)c2c(=O)n1-c1ccccc1`, the GI50 is 1.63 µM in [1]; 1.81 µM in [2]; 2.28 µM in experiment [7]; 1.36 µM in experiment [8]; 1.83 µM in experiment [3]; 1.59 µM in [4]. Also, the GI50 is 1.6 µM in experiment [5] and 1.83 µM in experiment [6]. Also, the TGI in [1] was 3.69 µM; in [2] it was 3.45 µM; in [7], 5.85 µM; in experiment [8], 5.82 µM; in experiment [3], 4.05 µM; in experiment [4] it was 3.02 µM. The TGI in [5] came out at 3.28 µM; in experiment [6], 4.16 µM.
In the case of `C=C1N(C=O)C(C)(C)N(O)C1(C)C`, the TGI in [1] is above 100 µM; in experiment [2], above 100 µM; in experiment [7] it was above 100 µM; in experiment [8] it was 84.4 µM; in experiment [3] it was above 100 µM; in experiment [4] it was above 100 µM. In addition, the TGI in experiment [5] and in experiment [6] was above 100 µM throughout.
As to `Cc1c(CN2CCN(C)CC2)c(CN2CCN(C)CC2)c(C)n1-c1ccc(Cl)cc1`, the TGI in experiment [1] was above 100 µM; in experiment [2], above 100 µM; in [7] it was 32 µM; in [8], 82.8 µM; in experiment [3], above 100 µM; in experiment [5], 39.2 µM. Moreover, the values for the TGI in experiment [9] and in experiment [6] were 40.8 µM and 29.1 µM, respectively.
As for `CCn1c2ccc(C(=O)CCCN3CCCCC3)cc2c2cc(C(=O)CCCN3CCCCC3)ccc21`, the TGI in experiment [1] was found to be 15.8 µM; in experiment [2], 8.76 µM; in [7], 3.6 µM; in experiment [3], 4.49 µM; in experiment [4] it was 3.37 µM; in experiment [5] it was 34.8 µM. Further, the values for the TGI in experiment [9] and in experiment [6] were 5.31 µM and 3.77 µM, respectively.
In the case of `O=c1cc(-c2ccncc2)[nH]c2cc3c(cc12)OCO3`, the TGI in experiment [1], in experiment [2], in experiment [7], in experiment [8], in experiment [3] and in [4] was above 100 µM throughout. For the same compound, the TGI in experiment [5] and in experiment [6] was above 100 µM each time.
As to `Cc1cc2ncn(C3CCCCO3)c2cc1C` (centres undefined), the TGI in experiment [1], in [2], in experiment [7], in experiment [8], in experiment [3] and in [4] was above 100 µM throughout. Further, the TGI in [5] and in experiment [6] was above 100 µM in each case.
As to `O=c1c(Cc2ccc(Cl)cc2)nnc2sc(-c3ccc(-c4ccc(F)c(Cl)c4)o3)nn12`, the TGI in experiment [1], in experiment [2], in experiment [7], in [8], in experiment [3] and in experiment [4] was above 100 µM in each case. The TGI in [5] and in experiment [6] was above 100 µM each time.
`C=C1OC(c2ccccc2NC)=NC12CCCCC2`: the TGI in experiment [1], in experiment [2], in experiment [7], in experiment [8], in experiment [3] and in experiment [4] was above 100 µM throughout. Further, the TGI in experiment [5] and in experiment [6] was above 100 µM throughout.
Take `COc1ccccc1CN=C1Nc2ccncc2S(=O)(=O)N1c1ccccc1`: the TGI in experiment [1], in [2], in experiment [7], in experiment [8], in experiment [3] and in experiment [5] was above 100 µM in each case. Besides, the TGI in experiment [9] and in experiment [6] was above 100 µM throughout.
